The test system of data set [1] is P–glycoprotein. On the set-up: method as in PMID 12130727. The settings on record: cited from earlier work.
For data set [2], the system named is UGT. On the set-up: method as in PMID 3917507. Particulars: mice ref 19, cited from earlier work.
Data set [3] deals with UGT. Set-up: method as in PMID 17487234. Particulars: cited from earlier work.
A short description of data set [4]: Tissue distribution, tissue to plasma ratio (Kp) in rats. Format: in vivo.
For data set [5] the following is noted: rat, in vivo, cited from earlier work.
The conditions of data set [6]: rat, in vivo, ip, 40 mg/kg; cited from earlier work.
Data set [7] has as its system P–glycoprotein. The settings on record: cited from earlier work.
Data set [8] in a line: in vivo. The settings on record: rat. Here is the method: Rats weighing more than 400 g were enrolled in the pharmacokinetic experiments. All rats were placed into metabolic cages and fasted overnight before the pharmacokinetic experiments. The rats were divided randomly into four groups (n = 6 in each): oxyresveratrol 100 mg/kg p.o., oxyresveratrol 100 mg/kg plus piperine 10 mg/kg p.o., oxyresveratrol 10 mg/kg i.v., and oxyresveratrol 10 mg/kg plus piperine 1 mg/kg i.v. All test formulations were freshly prepared by dissolving the compounds in 40% DMSO/NSS to obtain clear solution. The preparations were administered by oral gavage or intravenous administration via the lateral tail vein. […] Plasma samples were collected at baseline (0 h) and 24 h from a subset of rats for determination of AST, ALT and creatinine concentrations, performed by Professional Laboratory Management Crop Co., Ltd. Determination of the creatinine level was performed by the chemiluminescence method, while AST and ALT determination was performed with a kinetic method and measured using an automated analyzer (Cobas 6000; Hoffmann–La Roche, Ltd.). […]
The pharmacokinetic parameters were calculated by non–compartmental analysis using PK Solution 2.0 software (Summit Research Service). […] The absolute oral bioavailability of oxyresveratrol was calculated as (AUCp.o./dosep.o.)/(AUCi.v./dosei.v.). […]

Data set [9] is described as follows: physchem. Particulars: %Recovery (stability).
Data set [10] relates to male Wistar rats. The experiment in a line: Tolerability in rats (AST, ALT, creatinine, physical appearance). It counts as in vivo, rat.
Procedure: Rats weighing more than 400 g were enrolled in the pharmacokinetic experiments. All rats were placed into metabolic cages and fasted overnight before the pharmacokinetic experiments. The rats were divided randomly into four groups (n = 6 in each): oxyresveratrol 100 mg/kg p.o., oxyresveratrol 100 mg/kg plus piperine 10 mg/kg p.o., oxyresveratrol 10 mg/kg i.v., and oxyresveratrol 10 mg/kg plus piperine 1 mg/kg i.v. All test formulations were freshly prepared by dissolving the compounds in 40% DMSO/NSS to obtain clear solution. The preparations were administered by oral gavage or intravenous administration via the lateral tail vein. All rats were anaesthetized with 5% isoflurane by chamber induction method to prevent pain and injury during drug administration and blood collection. The blood collection was conducted at 0, 0.083 (5 min), 0.25 (15 min), 0.5 (30 min), 1, 2, 4, 8, 16 and 24 h in unconscious rats. For tissue collection, euthanization with overdose isoflurane > 10% by chamber induction method was conducted at 0.083 (5 min), 1, 2 and 4 h after oral gavage or intravenous administration, and death was confirmed by exsanguination. […] Plasma samples were collected at baseline (0 h) and 24 h from a subset of rats for determination of AST, ALT and creatinine concentrations, performed by Professional Laboratory Management Crop Co., Ltd. Determination of the creatinine level was performed by the chemiluminescence method, while AST and ALT determination was performed with a kinetic method and measured using an automated analyzer (Cobas 6000; Hoffmann–La Roche, Ltd.).
Setting [11] is: intravenous, oxyresveratrol 10 mg/kg (+ piperine 1 mg/kg in combination), postdose (24 h).
Where [12] appears, read: intravenous, oxyresveratrol 10 mg/kg (+ piperine 1 mg/kg in combination), predose (0 h) baseline.
Where [13] appears, read: oral, oxyresveratrol 100 mg/kg (+ piperine 10 mg/kg in combination), postdose (24 h).
[14] abbreviates: oral, oxyresveratrol 100 mg/kg (+ piperine 10 mg/kg in combination), predose (0 h) baseline.

Structures are written as SMILES. Where two headings read alike, the source gives them in different places. Bounds are passed on as bounds.

Consider `O=C(/C=C/C=C/c1ccc2c(c1)OCO2)N1CCCCC1` [piperine, Piperine], for which the “Inhibition of P–glycoprotein” value in [1] is on record as “inhibit”. Also, the “Decrease of in vivo UGT activity” value in [2] (piperine 10 mg/kg p.o.) is 36%; in [2] (piperine 25 mg/kg p.o.) it was 55%. In addition, the “Hepatic microsomal activity of UGT in vitro” value in [3] is listed as “reduces”.
As for `Oc1cc(O)cc(C=Cc2ccc(O)cc2O)c1` [Oxyresveratrol, 2,4,3′,5′–tetrahydroxystilbene], the Kp in [4] (male, Wistar, in vivo, 100 mg/kg, rat, oral gavage, from 5 min to 4 h, read-out: Tissue to plasma ratio of oxyresveratrol, other internal organs (not stomach, small intestine)) is 1 to 100. Further, in data set [4] (male, Wistar, rat, in vivo, iv), the Kp at 5 min lay within 10 to 100. Also, the “Oxyresveratrol level in the brain” value in data set [4] (rat, 1, 2 and 4 h after intravenous administration) was “Very low levels”. The Tmax entry in [5] (po) is listed as “approximately 15 min”. Further, the Absolute oral bioavailability in [5] is on record as 10–15%. Further, the “Concentration reaching the brain” value in data set [6] is “only a minimal concentration reached the brain”. For the same compound, in data set [7], the “P–glycoprotein substrate” value is “substrate of P–glycoprotein”. Also, the dose excreted in data set [8] (Wistar, in vivo, iv, Percentage recovery of unchanged oxyresveratrol in urine) is 5 to 10%. In addition, the “Unchanged oxyresveratrol found in feces” value in data set [8] (0 to 48 h after intravenous dosing) is given as less than 1%. In addition, in data set [9], the recovery at 100 ng/mL amounted to 92.6%; the recovery at 400 ng/mL came out at 86.3%; the recovery at 12 h, 10 ng/mL worked out at 63.5%; the recovery at 12 h, 100 ng/mL amounted to 73.5%. In data set [9], this compound had a recovery at 12 h, 400 ng/mL of 68.2%; a recovery at 30 d, 10 ng/mL of 72.4%; a recovery at 30 d, 100 ng/mL of 85.8%; a recovery at 30 d, 400 ng/mL of 81.1%. Further, in data set [10] (setting [11]), the ALT came to 5.80 ± 1.09 U/L, the AST is recorded as 45.40 ± 3.78 U/L and the Creatinine is given as 0.32 ± 0.08 mg/dL. Further, in data set [10] (setting [12]), the ALT was found to be 5.00 ± 0.00 U/L, the AST was found to be 42.00 ± 7.15 U/L and the Creatinine worked out at 0.25 ± 0.15 mg/dL. Besides, the Physical appearance entry in data set [10] (male Wistar rats, pre-dose and post-dose (24 h), i.v. and oral) is listed as “normal physical appearance”. In data set [10] (setting [13]), the ALT stood at 6.83 ± 3.25 U/L, the AST is reported as 40.83 ± 22.39 U/L and the Creatinine is listed as 0.17 ± 0.01 mg/dL. In data set [10] (setting [14]), the ALT was 9.40 ± 9.28 U/L, the AST turned out to be 32.40 ± 16.47 U/L and the Creatinine is recorded as 0.17 ± 0.01 mg/dL. Besides, for the setting “100 ng/mL”, the “%Recovery (stability)” value was found to be 72.84%. Further, the “%Recovery (stability)” value (400 ng/mL) is 70.43%.

(Values after PMC6720094, “Comparative pharmacokinetics of oxyresveratrol alone and in combination with piperine as a bioenhancer in rats” (BMC Complementary and Alternative Medicine, 2019).)
